Tests used:
[1] = Acute toxicity in CD1 mouse assessed as effect on water consumption at 2000 mg/kg, po measured for 2 weeks; assay type: organism-based; settings: in vivo, 336 h
[2] = AUClast in CD1 mouse plasma assessed as (12aR)-12-(Diphenylmethyl)-7-hydroxy-3,4,12,12a-tetrahydro-1H-[1,4]oxazino[3,4-c]pyrido[2,1-f ][1,2,4]triazine-6,8-dione level at 15 mg/kg, po administered as single dose measured up to 24 hrs by LC-MS/MS analysis; assay type: ADME, organism-based; set-up: dose 15 mg/kg, time < 24 hr, route oral; settings: in vivo
[3] = Half life in CD1 mouse heart assessed as (12aR)-12-(Diphenylmethyl)-7-hydroxy-3,4,12,12a-tetrahydro-1H-[1,4]oxazino[3,4-c]pyrido[2,1-f ][1,2,4]triazine-6,8-dione level at 15 mg/kg, po administered as single dose measured up to 24 hrs by LC-MS/MS analysis; assay type: ADME, organism-based; settings: in vivo
[4] = Tmax in CD1 mouse heart assessed as (12aR)-12-(Diphenylmethyl)-7-hydroxy-3,4,12,12a-tetrahydro-1H-[1,4]oxazino[3,4-c]pyrido[2,1-f ][1,2,4]triazine-6,8-dione level at 15 mg/kg, po administered as single dose measured up to 24 hrs by LC-MS/MS analysis; assay type: ADME, organism-based; settings: in vivo
[5] = AUClast in CD1 mouse heart assessed as (12aR)-12-(Diphenylmethyl)-7-hydroxy-3,4,12,12a-tetrahydro-1H-[1,4]oxazino[3,4-c]pyrido[2,1-f ][1,2,4]triazine-6,8-dione level at 15 mg/kg, po administered as single dose measured up to 24 hrs by LC-MS/MS analysis; assay type: ADME, organism-based; settings: in vivo
[6] = MRTlast in CD1 mouse lung assessed as (12aR)-12-(Diphenylmethyl)-7-hydroxy-3,4,12,12a-tetrahydro-1H-[1,4]oxazino[3,4-c]pyrido[2,1-f ][1,2,4]triazine-6,8-dione level at 15 mg/kg, po administered as single dose measured up to 24 hrs by LC-MS/MS analysis; assay type: ADME, organism-based; settings: in vivo
[7] = Elimination rate constant in CD1 mouse trachea assessed as (12aR)-12-(Diphenylmethyl)-7-hydroxy-3,4,12,12a-tetrahydro-1H-[1,4]oxazino[3,4-c]pyrido[2,1-f ][1,2,4]triazine-6,8-dione level at 15 mg/kg, po administered as single dose measured up to 24 hrs by LC-MS/MS analysis; assay type: ADME, organism-based; settings: in vivo
[8] = Cmax in CD1 mouse trachea assessed as (12aR)-12-(Diphenylmethyl)-7-hydroxy-3,4,12,12a-tetrahydro-1H-[1,4]oxazino[3,4-c]pyrido[2,1-f ][1,2,4]triazine-6,8-dione level at 15 mg/kg, po administered as single dose measured up to 24 hrs by LC-MS/MS analysis; assay type: ADME, organism-based; set-up: dose 15 mg/kg, route oral; settings: in vivo
[9] = MRTlast in CD1 mouse trachea assessed as (12aR)-12-(Diphenylmethyl)-7-hydroxy-3,4,12,12a-tetrahydro-1H-[1,4]oxazino[3,4-c]pyrido[2,1-f ][1,2,4]triazine-6,8-dione level at 15 mg/kg, po administered as single dose measured up to 24 hrs by LC-MS/MS analysis; assay type: ADME, organism-based; settings: in vivo
[10] = Half life in CD1 mouse small intestine assessed as (12aR)-12-(Diphenylmethyl)-7-hydroxy-3,4,12,12a-tetrahydro-1H-[1,4]oxazino[3,4-c]pyrido[2,1-f ][1,2,4]triazine-6,8-dione level at 15 mg/kg, po administered as single dose measured up to 24 hrs by LC-MS/MS analysis; assay type: ADME, organism-based; settings: in vivo
[11] = MRTlast in CD1 mouse small intestine assessed as (12aR)-12-(Diphenylmethyl)-7-hydroxy-3,4,12,12a-tetrahydro-1H-[1,4]oxazino[3,4-c]pyrido[2,1-f ][1,2,4]triazine-6,8-dione level at 15 mg/kg, po administered as single dose measured up to 24 hrs by LC-MS/MS analysis; assay type: ADME, organism-based; settings: in vivo
[12] = Cmax in CD1 mouse brain assessed as (12aR)-12-(Diphenylmethyl)-7-hydroxy-3,4,12,12a-tetrahydro-1H-[1,4]oxazino[3,4-c]pyrido[2,1-f ][1,2,4]triazine-6,8-dione level at 15 mg/kg, po administered as single dose measured up to 24 hrs by LC-MS/MS analysis; assay type: ADME, organism-based; set-up: dose 15 mg/kg, route oral; settings: in vivo
[13] = Ratio of AUClast in CD1 mouse muscle to plasma assessed as (12aR)-12-(Diphenylmethyl)-7-hydroxy-3,4,12,12a-tetrahydro-1H-[1,4]oxazino[3,4-c]pyrido[2,1-f ][1,2,4]triazine-6,8-dione level at 15 mg/kg, po administered as single dose measured up to 24 hrs by LC-MS/MS analysis; assay type: ADME, organism-based; settings: other tissue
[14] = Stability in mouse plasma assessed as parent compound remaining at 1 uM measured after 4 hrs by LC-MS/MS analysis; assay type: ADME, cell-free; settings: read-out: Stability
[15] = Cmax in CD1 mouse plasma assessed as baloxavir acid level at 15 mg/kg, po administered as single dose by LC-MS/MS analysis; assay type: ADME, organism-based; set-up: dose 15 mg/kg, route oral; settings: in vivo
[16] = AUCinfinity in CD1 mouse plasma assessed as baloxavir acid level at 15 mg/kg, po administered as single dose measured up to 24 hrs by LC-MS/MS analysis; assay type: ADME, organism-based; set-up: dose 15 mg/kg, route oral, time infinity; settings: in vivo
[17] = Elimination rate constant in CD1 mouse liver assessed as baloxavir acid level at 15 mg/kg, po administered as single dose measured up to 24 hrs by LC-MS/MS analysis; assay type: ADME, organism-based; settings: in vivo
[18] = Tmax in CD1 mouse liver assessed as baloxavir acid level at 15 mg/kg, po administered as single dose measured up to 24 hrs by LC-MS/MS analysis; assay type: ADME, organism-based; settings: in vivo
[19] = AUClast in CD1 mouse liver assessed as baloxavir acid level at 15 mg/kg, po administered as single dose measured up to 24 hrs by LC-MS/MS analysis; assay type: ADME, organism-based; settings: in vivo
[20] = MRTlast in CD1 mouse liver assessed as baloxavir acid level at 15 mg/kg, po administered as single dose measured up to 24 hrs by LC-MS/MS analysis; assay type: ADME, organism-based; settings: in vivo
[21] = Half life in CD1 mouse kidney assessed as baloxavir acid level at 15 mg/kg, po administered as single dose measured up to 24 hrs by LC-MS/MS analysis; assay type: ADME, organism-based; settings: in vivo
[22] = AUClast in CD1 mouse heart assessed as baloxavir acid level at 15 mg/kg, po administered as single dose measured up to 24 hrs by LC-MS/MS analysis; assay type: ADME, organism-based; settings: in vivo
[23] = MRTlast in CD1 mouse heart assessed as baloxavir acid level at 15 mg/kg, po administered as single dose measured up to 24 hrs by LC-MS/MS analysis; assay type: ADME, organism-based; settings: in vivo
[24] = Elimination rate constant in CD1 mouse lung assessed as baloxavir acid level at 15 mg/kg, po administered as single dose measured up to 24 hrs by LC-MS/MS analysis; assay type: ADME, organism-based; settings: in vivo
[25] = Ratio of AUClast in CD1 mouse small intestine to plasma assessed as baloxavir acid level at 15 mg/kg, po administered as single dose measured up to 24 hrs by LC-MS/MS analysis; assay type: ADME, organism-based; settings: other tissue
[26] = Cmax in CD1 mouse muscle assessed as baloxavir acid level at 15 mg/kg, po administered as single dose measured up to 24 hrs by LC-MS/MS analysis; assay type: ADME, organism-based, Muscle tissue; set-up: dose 15 mg/kg, route oral; settings: in vivo

Question: With `COC(=O)OCOc1c2n(ccc1=O)N(C(c1ccccc1)c1ccccc1)[C@@H]1COCCN1C2=O` as the compound, how does the Activity [1] read?
Answer: Its Activity is “Non-Toxic”.

Question: And the AUClast [2]?
Answer: The AUClast was 3287 ng·h/mL.

Question: And the t1/2 [3]?
Answer: The t1/2 was 1.69 h.

Question: What about the Tmax [4] of the same compound?
Answer: The Tmax was 0.5 h.

Question: And the AUClast [5]?
Answer: The AUClast was 11111 ng·h/g.

Question: And the MRTlast [6]?
Answer: Its MRTlast is 1.7 h.

Question: What about the Kel [7] of the same compound?
Answer: The Kel was 0.14 h⁻¹.

Question: What about the Cmax [8] of the same compound?
Answer: The Cmax was 3431 ng/g.

Question: And the MRTlast [9]?
Answer: Its MRTlast is 3.55 h.

Question: And the t1/2 [10]?
Answer: Its t1/2 is 1.28 h.

Question: And the MRTlast [11]?
Answer: Its MRTlast is 1.28 h.

Question: What about the Cmax [12] of the same compound?
Answer: The Cmax was 98 ng/g.

Question: What about the “Ratio AUC” value [13] of the same compound?
Answer: Its value is 2.26.

Question: What about the remaining at 4 h, 1 µM [14] of the same compound?
Answer: The remaining at 4 h, 1 µM was 0%.

Question: What does the source list for `COC(=O)OCOc1c2n(ccc1=O)N([C@@H]1c3ccccc3SCc3c1ccc(F)c3F)[C@@H]1COCCN1C2=O` [BALOXAVIR MARBOXIL]?
Answer: Cmax [15]: 141 ng/mL; AUC [16]: 558 ng·h/mL; Kel [17]: 0.27 h⁻¹; Tmax [18]: 2 h; AUClast [19]: 85226 ng·h/g; MRTlast [20]: 2.92 h; t1/2 [21]: 3.26 h; AUClast [22]: 8959 ng·h/g; MRTlast [23]: 4.84 h; Kel [24]: 0.2 h⁻¹; Ratio AUC [25]: 234; Cmax [26]: 916 ng/g

Source: ChEMBL document CHEMBL4622979, “Non-rigid Diarylmethyl Analogs of Baloxavir as Cap-Dependent Endonuclease Inhibitors of Influenza Viruses” (J Med Chem, 2020)
